From US20230295200A1 (REGENTS OF THE UNIVERSITY OF MICHIGAN, priority 2022, published 2023)

Experiments:
STAT5A = molecular target: T1, STAT5A (Homo sapiens, UniProt P42229); assay: Fluorescence polarization (FP) binding assay, STAT5A; conditions: FP competition, 5 nM fluorescein-labeled tracer, 200 nM protein, PBS pH7.4
T1 sequence (P42229 1-794): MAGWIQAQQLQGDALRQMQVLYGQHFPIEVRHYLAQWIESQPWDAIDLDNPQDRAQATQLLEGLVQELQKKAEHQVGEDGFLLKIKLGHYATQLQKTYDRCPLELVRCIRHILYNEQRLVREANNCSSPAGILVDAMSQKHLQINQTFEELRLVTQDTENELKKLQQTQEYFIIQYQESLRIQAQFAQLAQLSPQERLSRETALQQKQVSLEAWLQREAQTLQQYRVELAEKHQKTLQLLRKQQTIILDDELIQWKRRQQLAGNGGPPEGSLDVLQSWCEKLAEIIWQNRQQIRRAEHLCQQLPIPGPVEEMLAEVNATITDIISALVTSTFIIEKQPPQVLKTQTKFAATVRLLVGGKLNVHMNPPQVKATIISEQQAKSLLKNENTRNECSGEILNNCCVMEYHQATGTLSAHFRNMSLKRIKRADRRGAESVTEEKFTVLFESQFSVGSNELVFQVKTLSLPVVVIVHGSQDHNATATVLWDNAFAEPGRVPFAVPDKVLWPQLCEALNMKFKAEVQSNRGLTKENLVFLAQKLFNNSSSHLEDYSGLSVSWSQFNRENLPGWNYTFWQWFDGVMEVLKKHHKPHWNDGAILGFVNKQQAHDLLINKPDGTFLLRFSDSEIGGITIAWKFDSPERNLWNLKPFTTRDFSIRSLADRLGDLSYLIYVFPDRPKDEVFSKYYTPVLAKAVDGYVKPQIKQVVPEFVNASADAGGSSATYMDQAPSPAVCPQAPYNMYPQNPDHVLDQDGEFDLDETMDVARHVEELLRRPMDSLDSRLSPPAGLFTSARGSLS
In short: (§1)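 Polarization read after 1 h equilibration at room temperature (preceded by 15 min shaking) of 200 nM STAT5 and/or STAT6 with 5 nM fluorescein tracer. Buffer: PBS pH 7.4 plus 0.01% BGG, 0.01% Tween-20, 2 mM DTT; inhibition constants derived by nonlinear fitting.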

STAT6 protein = molecular target: T2, STAT6 protein (Homo sapiens, UniProt P42226); assay: Fluorescence polarization (FP) binding assay, STAT6; conditions: FP competition, 5 nM fluorescein-labeled tracer, 200 nM protein, PBS pH7.4; read-out: Binding STAT6
T2 sequence (P42226 1-847): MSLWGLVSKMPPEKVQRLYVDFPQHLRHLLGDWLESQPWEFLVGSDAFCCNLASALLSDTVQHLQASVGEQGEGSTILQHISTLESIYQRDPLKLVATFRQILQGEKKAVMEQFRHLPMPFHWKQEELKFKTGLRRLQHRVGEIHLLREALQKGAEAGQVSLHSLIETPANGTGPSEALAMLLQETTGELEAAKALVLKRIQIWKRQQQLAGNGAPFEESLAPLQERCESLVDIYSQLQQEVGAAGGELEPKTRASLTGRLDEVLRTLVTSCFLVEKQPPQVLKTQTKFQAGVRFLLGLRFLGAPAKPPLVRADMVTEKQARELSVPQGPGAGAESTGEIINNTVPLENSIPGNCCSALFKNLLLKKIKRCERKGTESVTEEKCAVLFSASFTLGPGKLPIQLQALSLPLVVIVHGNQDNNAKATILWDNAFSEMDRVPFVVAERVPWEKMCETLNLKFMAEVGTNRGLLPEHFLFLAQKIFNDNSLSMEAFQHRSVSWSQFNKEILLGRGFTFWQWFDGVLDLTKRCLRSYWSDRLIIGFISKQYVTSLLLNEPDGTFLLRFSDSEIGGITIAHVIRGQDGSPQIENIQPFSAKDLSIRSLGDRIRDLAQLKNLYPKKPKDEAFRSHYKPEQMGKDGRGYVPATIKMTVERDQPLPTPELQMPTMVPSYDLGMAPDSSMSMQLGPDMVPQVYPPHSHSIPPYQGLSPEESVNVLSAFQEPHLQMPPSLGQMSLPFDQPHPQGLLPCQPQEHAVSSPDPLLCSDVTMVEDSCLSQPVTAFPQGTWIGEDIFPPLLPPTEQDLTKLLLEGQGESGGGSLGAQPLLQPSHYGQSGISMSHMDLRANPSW
In short: as §1

Row | Ki (STAT5A) | Ki (STAT6 protein) | SMILES
1 | > 10 µM | 1 to 10 µM | CC(C)(C)[C@H](NC(=O)c1cc2cc(C(F)(F)P(=O)(O)O)ccc2s1)C(=O)N1C[C@@H](Oc2ccc3ccccc3c2)C[C@H]1C(=O)Nc1ncc(-c2ccccc2)s1 [Compound 209, ((2-(((S)-3,3-dimethyl-1-((2S,4S)-4-(naphthalen-2-yloxy)-2-((5-phenylthiazol-2-yl)carbamoyl)pyrrolidin-1-yl)-1-oxobutan-2-yl)carbamoyl)benzo[b]thiophen-5-yl)difluoromethyl)phosphonic acid]
2 | 1 to 10 µM | 1 to 10 µM | CC(C)(C)[C@H](NC(=O)c1cc2cc(C(F)(F)P(=O)(O)O)ccc2s1)C(=O)N1C[C@H](Oc2ccc3ccccc3c2)C[C@H]1C(=O)Nc1ncc(-c2ccccc2)s1 [Compound 210, ((2-(((S)-3,3-dimethyl-1-((2S,4R)-4-(naphthalen-2-yloxy)-2-((5-phenylthiazol-2-yl)carbamoyl)pyrrolidin-1-yl)-1-oxobutan-2-yl)carbamoyl)benzo[b]thiophen-5-yl)difluoromethyl)phosphonic acid]
3 | 1 to 10 µM | 0.1 to 1 µM | CC(C)(C)[C@H](NC(=O)c1cc2cc(C(F)(F)P(=O)(O)O)ccc2s1)C(=O)N1CCC[C@H]1C(=O)Nc1ncc(Cc2ccccc2)s1 [Compound 211, ((2-(((S)-1-((S)-2-((5-benzylthiazol-2-yl)carbamoyl)pyrrolidin-1-yl)-3,3-dimethyl-1-oxobutan-2-yl)carbamoyl)benzo[b]thiophen-5-yl)difluoromethyl)phosphonic acid]
4 | 1 to 10 µM | 1 to 10 µM | CC(C)(C)[C@H](NC(=O)c1cc2cc(C(F)(F)P(=O)(O)O)ccc2s1)C(=O)N1CCC[C@H]1C(=O)Nc1nc(Cc2ccccc2)cs1 [Compound 212, ((2-(((S)-1-((S)-2-((4-benzylthiazol-2-yl)carbamoyl)pyrrolidin-1-yl)-3,3-dimethyl-1-oxobutan-2-yl)carbamoyl)benzo[b]thiophen-5-yl)difluoromethyl)phosphonic acid]
5 | > 10 µM | 1 to 10 µM | CC(C)(C)[C@H](NC(=O)c1cc2cc(C(F)(F)P(=O)(O)O)ccc2s1)C(=O)N1CCC[C@H]1C(=O)Nc1nc2ccccc2s1 [Compound 213, ((2-(((S)-1-((S)-2-(benzo[d]thiazol-2-ylcarbamoyl)pyrrolidin-1-yl)-3,3-dimethyl-1-oxobutan-2-yl)carbamoyl)benzo[b]thiophen-5-yl)difluoromethyl)phosphonic acid]
6 | > 10 µM | 1 to 10 µM | CC(C)(C)[C@H](NC(=O)c1cc2cc(C(F)(F)P(=O)(O)O)ccc2s1)C(=O)N1CCC[C@H]1C(=O)N[C@H]1CCc2ccccc2C1 [Compound 214, ((2-(((S)-3,3-dimethyl-1-oxo-1-((S)-2-(((S)-1,2,3,4-tetrahydronaphthalen-2-yl)carbamoyl)pyrrolidin-1-yl)butan-2-yl)carbamoyl)benzo[b]thiophen-5-yl)difluoromethyl)phosphonic acid]
7 | > 10 µM | 1 to 10 µM | CC(C)(C)[C@H](NC(=O)c1cc2cc(C(F)(F)P(=O)(O)O)ccc2s1)C(=O)N1CCC[C@H]1C(=O)N[C@@H]1CCc2ccccc2C1 [Compound 215, ((2-(((S)-3,3-dimethyl-1-oxo-1-((S)-2-(((R)-1,2,3,4-tetrahydronaphthalen-2-yl)carbamoyl)pyrrolidin-1-yl)butan-2-yl)carbamoyl)benzo[b]thiophen-5-yl)difluoromethyl)phosphonic acid]

Continued, molecule first:

Row | SMILES | Ki (STAT5A) | Ki (STAT6 protein)
8 | CC(C)(C)[C@H](NC(=O)c1cc2cc(C(F)(F)P(=O)(O)O)ccc2s1)C(=O)N1Cc2ccccc2[C@H]1C(=O)Nc1ncc(-c2ccccc2)s1 [Compound 200, ((2-(((S)-3,3-dimethyl-1-oxo-1-((S)-1-((5-phenylthiazol-2-yl)carbamoyl)isoindolin-2-yl)butan-2-yl)carbamoyl)benzo[b]thiophen-5-yl)difluoromethyl)phosphonic acid] | 0.1 to 1 µM | 1 to 10 µM
9 | CC(C)(C)[C@H](NC(=O)c1cc2cc(C(F)(F)P(=O)(O)O)ccc2s1)C(=O)N1CCN(C(=O)OCc2ccccc2)C[C@H]1C(=O)Nc1ncc(-c2ccccc2)s1 [Compound 201, ((2-(((S)-1-((S)-4-((benzyloxy)carbonyl)-2-((5-phenylthiazol-2-yl)carbamoyl)piperazin-1-yl)-3,3-dimethyl-1-oxobutan-2-yl)carbamoyl)benzo[b]thiophen-5-yl)difluoromethyl)phosphonic acid] | 0.1 to 1 µM | 1 to 10 µM
10 | CC(C)(C)[C@H](NC(=O)c1cc2cc(C(F)(F)P(=O)(O)O)ccc2s1)C(=O)N1C[C@H](OCc2ccccc2)C[C@H]1C(=O)N1Cc2ccccc2C1 [Compound 202, ((2-(((S)-1-((2S,4R)-4-(benzyloxy)-2-(isoindoline-2-carbonyl)pyrrolidin-1-yl)-3,3-dimethyl-1-oxobutan-2-yl)carbamoyl)benzo[b]thiophen-5-yl)difluoromethyl)phosphonic acid] | 1 to 10 µM | 1 to 10 µM
11 | CC(C)(C)[C@H](NC(=O)c1cc2cc(C(F)(F)P(=O)(O)O)ccc2s1)C(=O)N1C[C@H](OCc2ccccc2)C[C@H]1C(=O)Nc1ncc(-c2ccccc2)s1 [Compound 203, ((2-(((S)-1-((2S,4R)-4-(benzyloxy)-2-((5-phenylthiazol-2-yl)carbamoyl)pyrrolidin-1-yl)-3,3-dimethyl-1-oxobutan-2-yl)carbamoyl)benzo[b]thiophen-5-yl)difluoromethyl)phosphonic acid] | 0.1 to 1 µM | 1 to 10 µM
12 | CCOC(=O)CO[C@H]1C[C@@H](C(=O)Nc2ncc(-c3ccccc3)s2)N(C(=O)[C@@H](NC(=O)c2cc3cc(C(F)(F)P(=O)(O)O)ccc3s2)C(C)(C)C)C1 [Compound 205, ((2-(((S)-1-((2S,4S)-4-(2-ethoxy-2-oxoethoxy)-2-((5-phenylthiazol-2-yl)carbamoyl)pyrrolidin-1-yl)-3,3-dimethyl-1-oxobutan-2-yl)carbamoyl)benzo[b]thiophen-5-yl)difluoromethyl)phosphonic acid] | 1 to 10 µM | 1 to 10 µM
13 | CCOC(=O)CO[C@@H]1C[C@@H](C(=O)Nc2ncc(-c3ccccc3)s2)N(C(=O)[C@@H](NC(=O)c2cc3cc(C(F)(F)P(=O)(O)O)ccc3s2)C(C)(C)C)C1 [Compound 206, ((2-(((S)-1-((2S,4R)-4-(2-ethoxy-2-oxoethoxy)-2-((5-phenylthiazol-2-yl)carbamoyl)pyrrolidin-1-yl)-3,3-dimethyl-1-oxobutan-2-yl)carbamoyl)benzo[b]thiophen-5-yl)difluoromethyl)phosphonic acid] | 0.1 to 1 µM | 1 to 10 µM
14 | CC(C)(C)[C@H](NC(=O)c1cc2cc(C(F)(F)P(=O)(O)O)ccc2s1)C(=O)N1C[C@@H](Oc2ccccc2)C[C@H]1C(=O)Nc1ncc(-c2ccccc2)s1 [Compound 207, ((2-(((S)-3,3-dimethyl-1-oxo-1-((2S,4S)-4-phenoxy-2-((5-phenylthiazol-2-yl)carbamoyl)pyrrolidin-1-yl)butan-2-yl)carbamoyl)benzo[b]thiophen-5-yl)difluoromethyl)phosphonic acid] | 1 to 10 µM | 1 to 10 µM
15 | CC(C)(C)[C@H](NC(=O)c1cc2cc(C(F)(F)P(=O)(O)O)ccc2s1)C(=O)N1C[C@H](Oc2ccccc2)C[C@H]1C(=O)Nc1ncc(-c2ccccc2)s1 [Compound 208, ((2-(((S)-3,3-dimethyl-1-oxo-1-((2S,4R)-4-phenoxy-2-((5-phenylthiazol-2-yl)carbamoyl)pyrrolidin-1-yl)butan-2-yl)carbamoyl)benzo[b]thiophen-5-yl)difluoromethyl)phosphonic acid] | 0.1 to 1 µM | 1 to 10 µM
